According to the supplement of paper PMC8671470:

Experiments:
Details in all cases: 72 h
KCL-22 [1] = tested on: KCL-22
Procedure, shortened: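 In 384-well plates holding acoustically pre-printed compounds at five tenfold doses from 1 to 10,000 nM, in duplicate, fifteen myeloid leukaemia cell lines were grown in RPMI 1640 for 72 h at 37 °C with 5% CO2. Luminescent ATP viability was scaled between vehicle and a positive control at 10 µM. The IC50 was then taken from log-logistic dose–response fits with four parameters.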

HL-60 [2] = test: cell viability (% survival relative to DMSO control); higher = less cytotoxic
Procedure, shortened: (§1)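 In 384-well plates, the full library was rescreened in duplicate on HL-60 cells in RPMI 1640 with 10% FBS, at 1–10,000 nM in five tenfold concentrations, for 72 h at 37 °C, 5% CO2. Each run also held DMSO or 100 nM of one of three metabolic inhibitors. Viability was measured by CellTiter-Glo and normalised to DMSO wells and to wells with proteasome inhibitor, present at 10 μM. Any area under the curve comes from four-parameter log-logistic fitting with drc and PharmacoGx.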

BV-173 = test: cell viability (% survival relative to DMSO control, bortezomib = 0%); higher = less cytotoxic
Procedure, shortened: (§2)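 Reported values are percent survival from duplicate wells, averaged. Fifteen myeloid leukaemia cell lines were treated in 384-well plates with compounds at 1, 10, 100, 1000 or 10000 nM for 72 h at 37 °C in 5% CO2. Signals from CellTiter-Glo luminescence were scaled with vehicle as 100% and a 10 µM positive control as 0%.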

HEL = test: as above
Procedure, shortened: as §2

HL-60 [3] = test: as above
Procedure, shortened: as §2

K-562 = test: as above
Procedure, shortened: as §2

KCL-22 [4] = test: as above
Procedure, shortened: as §2

KG-1 = test: as above
Procedure, shortened: as §2

KU-812 = test: as above
Procedure, shortened: as §2

LAMA-84 = test: as above
Procedure, shortened: as §2

ML-2 = test: as above
Procedure, shortened: as §2

MOLM-13 = test: as above
Procedure, shortened: as §2

MV4-11 = test: as above
Procedure, shortened: as §2

Mono-Mac-6 = test: as above
Procedure, shortened: as §2

NOMO-1 = test: as above
Procedure, shortened: as §2

SHI-1 = test: as above
Procedure, shortened: as §2

THP-1 = test: as above
Procedure, shortened: as §2

HL-60 [5] = test: area under dose-response curve (viability, 1 nM-10 uM) (fraction (0-1)); higher = more sensitive
Procedure, shortened: as §1

COc1ccc(-c2ccccc2)cc1NS(=O)(=O)c1cc(Cl)cc(Cl)c1O
Details | IC50 (cell viability) [µM]
KCL-22 [1] | > 10

cell viability [%], HL-60 [2]
Details | 0.001 µM | 0.01 µM | 0.1 µM | 1 µM | 10 µM
co-treatment: AZD3965 100 nM | 99.4 | 102 | 99 | 96 | 99.06
co-treatment: DMSO vehicle | 96.3 | 104.5 | 109 | 103 | 99
co-treatment: GSK2194069 100 nM | 93.5 | 99 | 109 | 92.7 | 98.5
co-treatment: pictilisib 100 nM | 103 | 104 | 114 | 100 | 93.2

Details | area under dose-response curve, co-treatment: AZD3965 100 nM | area under dose-response curve, co-treatment: DMSO vehicle | area under dose-response curve, co-treatment: GSK2194069 100 nM | area under dose-response curve, co-treatment: pictilisib 100 nM | cell viability, 1 nM [%] | cell viability, 10 nM [%] | cell viability, 100 nM [%] | cell viability, 1000 nM [%] | cell viability, 10000 nM [%]
BV-173 | – | – | – | – | 98.9 | 90 | 119 | 87.1 | 94.6
HEL | – | – | – | – | 106 | 87.4 | 115 | 74 | 95.3
HL-60 [3] | – | – | – | – | 88.3 | 77.6 | 100 | 25.6 | 95.9
HL-60 [5] | < 0.0301 | < 0.0301 | < 0.0301 | < 0.0301 | – | – | – | – | –
K-562 | – | – | – | – | 86.8 | 105 | 126 | 87.9 | 86.9
KCL-22 [4] | – | – | – | – | 90 | 92.8 | 108 | 93.7 | 97.7
KG-1 | – | – | – | – | 98.1 | 96.4 | 108 | 83.8 | 99.2
KU-812 | – | – | – | – | 98.2 | 84.4 | 105 | 95.6 | 104
LAMA-84 | – | – | – | – | 102 | 95.1 | 113 | 103 | 99
ML-2 | – | – | – | – | 99.8 | 102 | 102 | 84.5 | 97.7
MOLM-13 | – | – | – | – | 101 | 117 | 113 | 81 | 111
MV4-11 | – | – | – | – | 98.8 | 96.1 | 117 | 86.3 | 98.3
Mono-Mac-6 | – | – | – | – | 102 | 86.8 | 97.8 | 90.2 | 90.7
NOMO-1 | – | – | – | – | 102 | 96 | 107 | 92.7 | 99
SHI-1 | – | – | – | – | 95.9 | 101 | 105 | 82.2 | 113
THP-1 | – | – | – | – | 101 | 98.4 | 101 | 85.5 | 99.9

N#CC(C#N)=NNc1ccc(OC(F)(F)F)cc1 [FCCP]
Details | IC50 (cell viability) [µM]
KCL-22 [1] | 1.82

cell viability [%], HL-60 [2]
Details | 0.001 µM | 0.01 µM | 0.1 µM | 1 µM | 10 µM
co-treatment: AZD3965 100 nM | 101 | 102 | 82.8 | 110 | 8.55
co-treatment: DMSO vehicle | 99.6 | 94.6 | 99.9 | 104 | 10.3
co-treatment: GSK2194069 100 nM | 97.2 | 102 | 80.2 | 102.3 | 13.8
co-treatment: pictilisib 100 nM | 98.3 | 98.5 | 94.6 | 104 | 9.69

Details | area under dose-response curve, co-treatment: AZD3965 100 nM | area under dose-response curve, co-treatment: DMSO vehicle | area under dose-response curve, co-treatment: GSK2194069 100 nM | area under dose-response curve, co-treatment: pictilisib 100 nM | cell viability, 1 nM [%] | cell viability, 10 nM [%] | cell viability, 100 nM [%] | cell viability, 1000 nM [%] | cell viability, 10000 nM [%]
BV-173 | – | – | – | – | 119 | 94.9 | 96.7 | 82 | -0.482
HEL | – | – | – | – | 120 | 94.1 | 92.7 | 79.9 | 1.52
HL-60 [3] | – | – | – | – | 88.2 | 92.4 | 109 | 88.5 | 0.501
HL-60 [5] | 0.104 | 0.106 | 0.0946 | 0.107 | – | – | – | – | –
K-562 | – | – | – | – | 109 | 93.4 | 92.1 | 74 | 1.97
KCL-22 [4] | – | – | – | – | 110 | 83.6 | 85.8 | 68.3 | 4.51
KG-1 | – | – | – | – | 101 | 101 | 94.7 | 80.8 | 7.07
KU-812 | – | – | – | – | 108 | 98 | 92.4 | 65.7 | 0.082
LAMA-84 | – | – | – | – | 100 | 97.6 | 94.2 | 79.1 | 0.398
ML-2 | – | – | – | – | 104 | 96.5 | 105 | 82.3 | 0.124
MOLM-13 | – | – | – | – | 121 | 92.6 | 99.3 | 82.7 | 0.459
MV4-11 | – | – | – | – | 104 | 101 | 98.9 | 88.5 | -1.01
Mono-Mac-6 | – | – | – | – | 100 | 92 | 96.1 | 82.8 | 3.03
NOMO-1 | – | – | – | – | 100 | 105 | 102 | 93.5 | 4.3
SHI-1 | – | – | – | – | 94.6 | 103 | 101 | 91.5 | 35.1
THP-1 | – | – | – | – | 104 | 94.3 | 102 | 102 | 7.73

CCCc1cc(-c2nc(-c3ccc(C)cc3)cs2)ccn1 [Fatostatin]
Details | IC50 (cell viability) [µM]
KCL-22 [1] | > 10

cell viability [%], HL-60 [2]
Details | 0.001 µM | 0.01 µM | 0.1 µM | 1 µM | 10 µM
co-treatment: AZD3965 100 nM | 75.1 | 101.7 | 102 | 103 | 79.9
co-treatment: DMSO vehicle | 92.9 | 96.1 | 101 | 98.5 | 94.39
co-treatment: GSK2194069 100 nM | 95.9 | 94.22 | 96.1 | 92.5 | 70.7
co-treatment: pictilisib 100 nM | 90.3 | 97.8 | 105 | 96.7 | 63.5

Details | area under dose-response curve, co-treatment: AZD3965 100 nM | area under dose-response curve, co-treatment: DMSO vehicle | area under dose-response curve, co-treatment: GSK2194069 100 nM | area under dose-response curve, co-treatment: pictilisib 100 nM | cell viability, 1 nM [%] | cell viability, 10 nM [%] | cell viability, 100 nM [%] | cell viability, 1000 nM [%] | cell viability, 10000 nM [%]
BV-173 | – | – | – | – | 90.6 | 98.4 | 94.9 | 112 | 24.8
HEL | – | – | – | – | 92.6 | 97.8 | 92.1 | 108 | 90.4
HL-60 [3] | – | – | – | – | 110 | 84.6 | 95.5 | 105 | 43.1
HL-60 [5] | < 0.0301 | < 0.0301 | 0.0533 | 0.0342 | – | – | – | – | –
K-562 | – | – | – | – | 103 | 95.9 | 102 | 117 | 60.2
KCL-22 [4] | – | – | – | – | 98.3 | 86.2 | 92.5 | 113 | 55.3
KG-1 | – | – | – | – | 102 | 99.8 | 106 | 90.3 | 23.1
KU-812 | – | – | – | – | 100 | 101 | 87.2 | 106 | 74.1
LAMA-84 | – | – | – | – | 105 | 92.2 | 104 | 109 | 79.8
ML-2 | – | – | – | – | 93.4 | 101 | 92 | 111 | 29.5
MOLM-13 | – | – | – | – | 89.2 | 78.1 | 106 | 108 | 104
MV4-11 | – | – | – | – | 105 | 95.9 | 93.2 | 98.2 | 65.7
Mono-Mac-6 | – | – | – | – | 94.5 | 97.3 | 101 | 111 | 87.8
NOMO-1 | – | – | – | – | 98.3 | 91.3 | 104 | 111 | 97.4
SHI-1 | – | – | – | – | 106 | 91.7 | 105 | 114 | 14.4
THP-1 | – | – | – | – | 95.2 | 90.1 | 108 | 98.5 | 81.1
